The assay deals with Plasmopara viticola. Nature of the assay: activity against peronospora of grapevines caused by Plasmopara viticola (protective spray test on potted vines). The assay is classed as in vivo, Plasmopara viticola on vines of the cultivar "Riesling". The note with it: individual active compound, untreated control 92% infection. The protocol: The active compounds, separately or jointly, were prepared as a stock solution comprising 0.25% by weight of active compound in acetone or DMSO. 1% by weight of the emulsifier Uniperol® EL (wetting agent having emulsifying and dispersant action based on ethoxylated alkylphenols) was added to this solution, and the mixture was diluted with water to the desired concentration.
Use example—activity against peronospora of grapevines caused by Plasmopara viticola Leaves of potted vines of the cultivar “Riesling” were sprayed to runoff point with an aqueous suspension having the concentration of active compound stated below. The next day, the undersides of the leaves were inoculated with an aqueous zoospore suspension of Plasmopara viticola. The grapevines were then initially placed in a water-vapor-saturated chamber at 24° C. for 48 hours and then in a greenhouse at 20-30° C. for 5 days. After this period of time, the plants were again placed in a humid chamber for 16 hours to promote sporangiophore eruption. The extent of the development of the disease on the undersides of the leaves was then determined visually.
The visually determined percentages of infected leaf areas were converted into efficacies in % of the untreated control:
The efficacy (E) is calculated as follows using Abbot's formula: E=(1−[…] )·100 α corresponds to the fungicidal infection of the treated plants in % and β corresponds to the fungicidal infection of the untreated (control) plants in % An efficacy of 0 means that the infection level of the treated plants corresponds to that of the untreated control plants; an efficacy of 100 means that the treated plants were not infected.
The expected efficacies of mixtures of active compounds were determined using Colby's formula (Colby, S. R. “Calculating synergistic and antagonistic responses of herbicide combinations”, Weeds, 15, 20-22, 1967) and compared with the observed efficacies.
Colby's formula: E=x+y−x·y/100
E expected efficacy, expressed in % of the untreated control, when using the mixture of the active compounds A and B at the concentrations a and b x efficacy, expressed in % of the untreated control, when using the active compound A at the concentration a y efficacy, expressed in % of the untreated control, when using the active compound B at the concentration b

`CC1CCN(c2c(-c3c(F)cc(F)cc3F)c(Cl)nc3ncnn23)CC1` [compound I, 5-chloro-7-(4-methylpiperidin-1-yl)-6-(2,4,6-trifluorophenyl)-[1,2,4]triazolo[1,5-a]pyrimidine]: the “Efficacy in % of the untreated control” value (16 ppm in the spray liquor) worked out at 56%.
With `OC(c1ccc(Cl)cc1)(c1cncnc1)c1ccccc1Cl` (stereo not shown) [compound II, (4-chlorophenyl)(2-chlorophenyl)pyrimidin-5-ylmethanol], the “Efficacy in % of the untreated control” value stood at 2% (4 ppm in the spray liquor), 2% (16 ppm in the spray liquor) and 2% (63 ppm in the spray liquor).

(Values after patent US20070161652A1, “Fungicidal mixtures” (BASF Aktiengesellschaft, priority 2004, published 2007).)
